Earlier results as cited in patent publication US20230310429A1, “FORMULATIONS FOR REDUCING HAIR LOSS AND/OR INCREASING HAIR REGROWTH” (TRIPLE HAIR INC., priority 2020, published 2023).
Like-named read-outs stand apart in the source and are kept apart here.

Key:
[1] = not given; remark: listed apart in the source
[2] = not given; remark: listed apart in the source
regrowth of the hair = conditions: topical
[3] = tested on: prostaglandin endoperoxide synthase-1 (PGHS-1); conditions: oxygen consumption in PGE2 production; Michelet et al. 1997

| solubility (in words) (acetone) | solubility (in words) (acetonitrile) | solubility (in words) (ethanol) | solubility (in words) (ethyl acetate) | solubility (in words) (isopropanol) | solubility (in words) (methanol) | solubility (in words) (octanol) | solubility (in words) (water) | solubility (in words) (0.1N HCl) | solubility (in words) (0.1N NaOH) | solubility (in words) (DMSO) | solubility (in words) (chloroform) | solubility (in words) (n-propanol) | solubility (in words) (polyethylene glycol 400) | solubility (in words) (propylene glycol) | SMILES | other adverse effects ([1]; in vivo) | side effect on periocular hair and eyelashes ([1]; ophthalmic use) | pKa [2] | effective in promoting regrowth of the hair (regrowth of the hair) | activation of purified PGHS-1 [3] |
| --- | --- | --- | --- | --- | --- | --- | --- | --- | --- | --- | --- | --- | --- | --- | --- | --- | --- | --- | --- | --- |
| freely soluble | very soluble | freely soluble | freely soluble | freely soluble | freely soluble | freely soluble | practically insoluble |  |  |  |  |  |  |  | CC(C)OC(=O)CCC/C=C\C[C@@H]1[C@@H](CC[C@@H](O)CCc2ccccc2)[C@H](O)C[C@@H]1O [Latanoprost] | erythema, folliculitis, sensation of burning and erysipelas | augmentation of periocular hirsuteness |  |  |  |
|  |  | freely soluble |  |  | freely soluble |  | not soluble | very slightly soluble | very slightly soluble | freely soluble | freely soluble | freely soluble | sparingly soluble | sparingly soluble | CC(C)(C)NC(=O)[C@H]1CC[C@H]2[C@@H]3CC[C@H]4NC(=O)C=C[C@]4(C)[C@H]3CC[C@]12C [Finasteride, ((5α,17β)-N-(1,1-Dimethylethyl)-3-oxo-4-azaandrost-1-ene-17-carboxamide)] |  |  |  |  |  |
|  |  |  |  |  |  |  |  |  |  |  |  |  |  |  | Nc1cc(N2CCCCC2)nc(N)[n+]1[O-] [Minoxidil, (6-(1-pipedidinyl)-2,4-pyrimidinediamine 3-oxide)] |  |  | 4.61 | less than 40% | potent activator |
